Data on five compounds can be found in patent publication EP4775208A1, “USE OF PRMT5 INHIBITOR IN TREATMENT OF TUMORS OR CANCERS” (Apeiron Therapeutics (Hong Kong) Ltd., priority 2023, dated 2025).

Data set [1] in a line: Mouse pharmacokinetic experiment (IV and PO, plasma). It is filed as in vivo, ICR male mice. As to conditions: ICR mice; for bioavailability: male, mouse, read-out: Bioavailability F (%); for bioavailability / AUClast: plasma. As to the method: II. Mouse Pharmacokinetic Experiment
The compounds used in this experiment are specific embodiments of the present invention, with reference to compound AMG473 as an example from Amgen's patent WO 2022/169948A1, identified as example 473.
ICR male mice, N=3/group; sourced from Zhejiang Vital River Laboratory Animal Technology Co., Ltd.
3. Drug Preparation and Administration
Single oral (PO) administration to ICR mice: Compounds were dissolved in dimethyl sulfoxide, added to polyethylene glycol 400 and sterile water, and then adjusted to a clear solution with a small amount of 1 mol/L hydrochloric acid. After overnight fasting, the mice were orally gavaged with a dose of 10 mg/kg. Single intravenous (IV) administration to ICR mice: Compounds were dissolved in dimethyl sulfoxide, added to polyethylene glycol 400 and sterile water, and then adjusted to a clear solution with a small amount of 1 mol/L hydrochloric acid. After overnight fasting, the mice received tail vein injections with a dose of 3 mg/kg.
Approximately 30 µL/time point blood samples were collected via the tail vein. Potassium ethylenediaminetetraacetate was used as an anticoagulant, and samples were centrifuged at 4000 g/min for 5 minutes at 4°C within 1 hour. Blood sampling time points were 0.0833 (IV), 0.25, 0.5, 1, 2, 4, 6, 8, 24 hours. Samples were stored in a -20°C freezer.
Plasma samples (30µL, 10µL sample + 20µL blank plasma) were mixed with 200µL ice-cold acetonitrile containing internal standards. After vortexing for 30 seconds, samples were centrifuged at 4000g/min for 20 minutes. One hundred microliters of the supernatant were transferred to a 96-well plate, followed by the addition of 200µL ultrapure water. After vortexing for 30 seconds, 5µL or 10µL were injected into LC-MS/MS for analysis. Table 7: Pharmacokinetic Data

Another data set deals with A549. The experiment in a line: Mini cell panel: inhibition of proliferation of A549 cells. It counts as cell-based. An excerpt: (§1) Test 9: Mini Cell Panel: Assay for Inhibitory Activity of Compounds against Proliferation of 20 Tumor Cell Lines
(§2) Materials and Cells: Fifteen MTAP(-/-) cell lines and five MTAP wild-type cell lines were purchased from ATCC (USA). Cell culture media, fetal bovine serum (FBS), and penicillin-streptomycin were purchased from Thermo Fisher Scientific (USA). 384-well plates were purchased from PerkinElmer (USA). The CellTiter-Glo assay kit was purchased from Promega (USA). Paclitaxel was used as the control compound.

A further data set deals with LN-18. Description: Mini cell panel: inhibition of proliferation of LN-18 cells. It is filed as cell-based.
Text: as §1, §2

Data set [2] relates to HCT-116 MTAP(-/-) deficient cells. The experiment in a line: Inhibition of proliferation of HCT-116 MTAP(-/-) deficient cells (Cell-Titer Glo). The note with it: 8 days. It is filed as cell-based. The gist of the method: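 Cells in log-phase growth, RPMI-1640 with 10% FBS, seeded and left overnight at 37°C, 5% CO2. Compound tested at 0–10,000 nM (10 points, 3-fold, 0.1% DMSO) for 8 days at 37°C, 5% CO2. Viability read by CellTiter-Glo luminescence.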

For another data set, the system named is NCI-H647. Description: Mini cell panel: inhibition of proliferation of NCI-H647 cells. It is filed as cell-based.
Text: as §1, §2

The subject of the next data set is BxPc-3. The experiment in a line: Mini cell panel: inhibition of proliferation of BxPc-3 cells. It is filed as cell-based.
Text: as §1, §2

The subject of another data set is SW780. Description: Mini cell panel: inhibition of proliferation of SW780 cells. It counts as cell-based.
Text: as §1, §2

The subject of a further data set is MDA-MB-231. The experiment in a line: Mini cell panel: inhibition of proliferation of MDA-MB-231 cells. It is filed as cell-based.
Text: as §1, §2

Data set [3] concerns HCT-116 MTAP wild-type cells. The experiment in a line: Inhibition of proliferation of HCT-116 MTAP wild-type cells (Cell-Titer Glo). It counts as cell-based. As to conditions: 8 days. The method in brief:
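MTAP wild-type HCT-116 cells were seeded, cultured overnight and then exposed to compound from 10,000 nM down in a 10-point, 3-fold series (0.1% DMSO). Plates were incubated 8 days at 37°C, 5% CO2. Proliferation was read by Cell-Titer Glo viability luminescence.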

Data set [4] has as its system LU99 MTAP-overexpressing cells. The experiment in a line: Inhibition of proliferation of LU99 MTAP-overexpressing cells (CellTiter-Glo). As to conditions: cell proliferation, 6 days. It is filed as cell-based. As to the method:
Test 4: Assay for Inhibitory Activity of Compounds against LU99 MTAP-Overexpressing Cell Proliferation
Materials and Cells: The LU99 MTAP-overexpressing cell line was purchased from Cobioer Biosciences (China). Cell culture media and fetal bovine serum (FBS) were purchased from Thermo Fisher Scientific (USA). 384-well plates were purchased from PerkinElmer (USA). The CellTiter-Glo assay kit was purchased from Promega (USA).
Cell Culture: LU99 MTAP-overexpressing cells were cultured in a medium supplemented with 10% fetal bovine serum (FBS) at 37°C with 5% CO2. Only cells in the logarithmic growth phase were used for experiments.
Cell Proliferation Inhibition Assay: The antiproliferative activity of the compounds against LU99 MTAP-overexpressing cells was assessed using the CellTiter-Glo assay kit. Cell suspensions were adjusted to the appropriate density and seeded into 384-well plates at a volume of 40 µL per well, then incubated overnight at 37°C with 5% CO2. Compounds (40 nL) were added to each well to achieve final concentrations ranging from 0 to 10,000 nM (starting concentration 10,000 nM, 2.5-fold serial dilutions, 10 dose points), with a final DMSO concentration of 0.2%. The cell plates were incubated at 37°C with 5% CO2 for 6 days. Subsequently, 40 µL of CellTiter-Glo reagent was added to measure cell viability.

The mark [5] stands for this setting: Homo sapiens, LN-18, MTAP (-/-).
[6] abbreviates: Homo sapiens, NCI-H647, MTAP (-/-).
The mark [7] stands for this setting: Homo sapiens, BXPC-3, MTAP (-/-).
Where [8] appears, read: Homo sapiens, SW780, MTAP (-/-).
The mark [9] stands for this setting: Homo sapiens, MDA-MB-231, MTAP (-/-).

Broadly, the IC50 is the point on the concentration scale where inhibition reaches its midpoint. Low readings indicate greater potency, high ones weaker potency. On to `CN(C(=O)c1cc2c(cn1)nc(N)c1cncn12)[C@@H]1COc2cc(C(F)(F)F)ccc21` [Example 4, (S)-4-amino-N-methy 1-N-(6-(trifluoromethy 1)-2,3-dihydrobenzofuran-3-yl)imidazo[1,5-a]pyrido[3,4-e]pyrazine-8-carboxamide], for which the bioavailability in [1] (PO(10mg/kg) vs IV(3mg/kg)) worked out at 77%. For the same compound, the IC50 was found to be 20.2 nM in the data set on A549 (Homo sapiens, A549, MTAP (-/-)); 7.8 nM in the data set with LN-18 (setting [5]); 9.9 nM in [2] (Homo sapiens, HCT-116, 192 h); 16 nM with NCI-H647 (setting [6]); 15.2 nM with BxPc-3 (setting [7]); 177 nM with SW780 (setting [8]). The IC50 with MDA-MB-231 (setting [9]) was 955 nM; in data set [3] (Homo sapiens, HCT-116, 192 h) it was 1710 nM.
On to `[2H]C([2H])([2H])N(C(=O)c1ccc2nc(N)c3cncn3c2c1)[C@@H]1COc2cc(C(F)(F)F)ccc21` [Example 16, (S)-4-amino-N-(methyl-d3)-N-(6-(trifluoromethyl)-2,3-dihydrobenzofuran-3-yl)imidaz o[1,5-a]quinoxaline-8-carboxamide], for which, in data set [1] (PO(10mg/kg) vs IV(3mg/kg)), the bioavailability was determined as 131%. The IC50 was 5.6 nM in data set [2] (Homo sapiens, HCT-116, 192 h); 2480 nM in data set [4] (Homo sapiens, Lu-99, 144 h); 1080 nM in data set [3] (Homo sapiens, HCT-116, 192 h).
The matching figures for `[2H]C([2H])([2H])N(C(=O)c1cc2c(cc1F)nc(N)c1cncn12)[C@@H]1COc2cc(C(F)(F)F)ccc21` [Example 41, (S)-4-amino-7-fluoro-N-(methyl-d3)-N-(6-(trifluoromethyl)-2,3-di hydrobenzofuran-3-yl)imidazo[1,5-a]quinox aline-8-carboxamide]: 257%, 11 nM, 1640 nM and 1140 nM.
“(S)-4-amino-7-fluoro-N-methyl-N-(6-(triflu oromethyl)-2,3-dihydr obenzofuran-3-yl)imi dazo[1,5-a]quinoxalin e-8-carboxamide [Example 29]”: the “T1/2” value in [1] (IV(3mg/kg)) is 4.38 h; in [1] (PO(10mg/kg)), 4.16 h. Besides, the “AUClast” value came to 12925 ng·h/mL in data set [1] (IV(3mg/kg)) and 43906 ng·h/mL in data set [1] (PO(10mg/kg)). Besides, the “Bioavailability F (%)” value in [1] (PO(10mg/kg) vs IV(3mg/kg)) is listed as 102%. For the same compound, the IC50 with A549 (MTAP (-/-)) amounted to 8.5 nM; in the data set with LN-18 (MTAP (-/-)) it was 5.4 nM; in data set [2], 7.1 nM; in data set [4] it was 1490 nM; in the data set on NCI-H647 (MTAP (-/-)) it was 41.6 nM; with BxPc-3 (MTAP (-/-)), 57.2 nM. Also, the IC50 turned out to be 660 nM with SW780 (MTAP (-/-)), 390 nM in the data set on MDA-MB-231 (MTAP (-/-)) and 935 nM in data set [3].
In the case of `CN(C(=O)c1ccc2nc(N)c3cncn3c2c1)[C@@H]1COc2cc(C(F)(F)F)ccc21` [Example 107, (S)-4-amino-N-methy 1-N-(6-(trifluoromethy 1)-2,3-dihydrobenzofuran-3-yl)imidazo[1,5-a]quinoxaline-8-carboxamide], the bioavailability in [1] (PO(10mg/kg) vs IV(3mg/kg)) is 119%. The IC50 in the data set with A549 (Homo sapiens, A549, MTAP (-/-)) was found to be 69.1 nM; with LN-18 (setting [5]), 9.4 nM; in [2] (Homo sapiens, HCT-116, 192 h), 7.4 nM; in [4] (Homo sapiens, Lu-99, 144 h), 2360 nM; with NCI-H647 (setting [6]), 30 nM; in the data set on BxPc-3 (setting [7]), 32.7 nM. The IC50 is 210 nM with SW780 (setting [8]); 2060 nM with MDA-MB-231 (setting [9]); 1730 nM in data set [3] (Homo sapiens, HCT-116, 192 h).
